This passage reports IC50 and EC50 results from ChEMBL document CHEMBL1150871, “New Briarane Stecholide Diterpenes from the Indonesian Gorgonian Briareum sp” (J Nat Prod, 1998).

≈ marks a conversion by molar mass, not a printed value.

Holding throughout (type): functional, cell-based
One experiment has as its system HT-29. The experiment can be described thus: Cytotoxicity against human HT-29 cells.
Another experiment deals with SK-MEL-28. As to the kind of experiment: Cytotoxicity against human SK-MEL-28 cells.
Another experiment concerns P388. As to the kind of experiment: Cytotoxicity against mouse P388 cells.
For the next experiment, the system named is A549. As to the kind of experiment: Cytotoxicity against human A549 cells.

In general, IC50 refers to the concentration that gives 50% inhibition. A word on the EC50: it is the concentration at which the effect is half-maximal. The low end stands for an effect from little substance, the high end for a need for much substance.

On to `CC(=O)O[C@H]1C[C@@H]2O[C@]2(C)[C@@H]2[C@H](OC(C)=O)[C@@]34O[C@@]3(C)C(=O)O[C@H]4/C=C(/C)[C@H](OC(C)=O)C[C@H](OC(C)=O)[C@]12C` [STECHOLIDE C ACETATE], for which the half-inhibitory concentration (IC50) with HT-29, in the experiment with SK-MEL-28, in the experiment on P388 and with A549 was over 10 µg/mL in each case.

Take `CC(=O)O[C@@H]1[C@@H]2O[C@]2(C)[C@@H]2[C@@H](OC(C)=O)[C@]34O[C@@]3(C)C(=O)O[C@H]4/C=C(/C)C[C@@H](OC(C)=O)[C@H](OC(C)=O)[C@@]2(C)[C@H]1OC(C)=O` [STECHOLIDE K]: the IC50 in the experiment with HT-29, with SK-MEL-28, in the experiment with P388 and with A549 was over 10 µg/mL each time.

As to `CCCC(=O)O[C@@H]1C/C(C)=C\[C@@H]2OC(=O)[C@]3(C)O[C@]23[C@H](OC(C)=O)[C@H]2C(C)=C[C@@H](O)[C@H](OC(C)=O)[C@]2(C)[C@H]1OC(C)=O` [STECHOLIDE I], the IC50 in the experiment on HT-29, with SK-MEL-28, in the experiment on P388 and in the experiment on A549 was over 10 µg/mL each time.

For the molecule `CC(=O)O[C@@H]1[C@H]2C(C)=C[C@@H](O)[C@H](OC(C)=O)[C@]2(C)[C@@H](OC(C)=O)[C@H](OC(C)=O)C/C(C)=C\[C@@H]2OC(=O)[C@]3(C)O[C@@]213` [STECHOLIDE J], the IC50 with HT-29, with SK-MEL-28, with P388 and in the experiment on A549 was over 10 µg/mL in each case.

For `CC(=O)O[C@H]1CC/C(C)=C\[C@@H]2OC(=O)[C@]3(C)O[C@@]23[C@@H](OC(C)=O)[C@H]2[C@@]3(C)O[C@H]3C[C@H](OC(C)=O)[C@]12C`, the IC50 in the experiment with HT-29, in the experiment on SK-MEL-28 and in the experiment on A549 was over 10 µg/mL in each case. In the experiment on P388, the response was half-maximal at 1.59 µg/mL (≈ 3.14 µM) (EC50).

Regarding `CC(=O)O[C@@H]1[C@H]2[C@@]3(C)O[C@H]3[C@@H](O)[C@H](OC(C)=O)[C@]2(C)[C@@H](OC(C)=O)[C@H](OC(C)=O)C/C(C)=C\[C@@H]2OC(=O)[C@]3(C)O[C@@]213` [STECHOLIDE L], the IC50 turned out to be 5 µg/mL (≈ 8.61 µM) with HT-29, 5 µg/mL (≈ 8.61 µM) in the experiment with SK-MEL-28, 10 µg/mL (≈ 17.2 µM) in the experiment with P388 and 2.5 µg/mL (≈ 4.31 µM) in the experiment with A549.

For the molecule `CC(=O)O[C@H]1C=C[C@@](C)(O)[C@@H]2[C@H](OC(C)=O)[C@@]34O[C@@]3(C)C(=O)O[C@H]4/C=C(/C)CC[C@H](OC(C)=O)[C@@]12C`, the IC50 in the experiment on HT-29, in the experiment on SK-MEL-28, with P388 and with A549 was over 10 µg/mL throughout.

For the molecule `CCCC(=O)O[C@H]1C[C@@H](OC(C)=O)/C(C)=C\[C@@H]2OC(=O)[C@]3(C)O[C@@]23[C@@H](OC(C)=O)[C@H]2[C@@]3(C)O[C@H]3C[C@H](OC(C)=O)[C@]12C` [STECHOLIDE A ACETATE], the IC50 with HT-29, in the experiment on SK-MEL-28, with P388 and in the experiment with A549 was over 10 µg/mL each time.

For the molecule `CC(=O)O[C@H]1C/C(C)=C\[C@@H]2OC(=O)[C@]3(C)O[C@]23[C@@H](OC(C)=O)[C@H]2C(C)=CC[C@H](OC(C)=O)[C@]2(C)[C@H]1OC(C)=O`, the 50% inhibitory concentration (IC50) in the experiment with HT-29, in the experiment with SK-MEL-28, with P388 and in the experiment with A549 was over 10 µg/mL throughout.
